Read-outs that look alike come from different tables or passages of the source.
Legend:
Peptostreptococcus = assay: Effect on anaerobic bacteria (growth); type: cell-based; settings: at a concentration of 5 μg/ml
[1] = target: T1, Helicobacter pylori fumarate reductase (Helicobacter pylori, UniProt O06913); type: biochemical; settings: Control 19.2 ± 2.5
T1 construct: Membrane associated proteins were solubilized from the pellet in 150 mM KCl, pH 7.0; endogenous in cells; host or cells: Helicobacter pylori 007 strain; KCl-solubilised fraction (or sonicate supernatant)
T1 sequence (O06913 1-714): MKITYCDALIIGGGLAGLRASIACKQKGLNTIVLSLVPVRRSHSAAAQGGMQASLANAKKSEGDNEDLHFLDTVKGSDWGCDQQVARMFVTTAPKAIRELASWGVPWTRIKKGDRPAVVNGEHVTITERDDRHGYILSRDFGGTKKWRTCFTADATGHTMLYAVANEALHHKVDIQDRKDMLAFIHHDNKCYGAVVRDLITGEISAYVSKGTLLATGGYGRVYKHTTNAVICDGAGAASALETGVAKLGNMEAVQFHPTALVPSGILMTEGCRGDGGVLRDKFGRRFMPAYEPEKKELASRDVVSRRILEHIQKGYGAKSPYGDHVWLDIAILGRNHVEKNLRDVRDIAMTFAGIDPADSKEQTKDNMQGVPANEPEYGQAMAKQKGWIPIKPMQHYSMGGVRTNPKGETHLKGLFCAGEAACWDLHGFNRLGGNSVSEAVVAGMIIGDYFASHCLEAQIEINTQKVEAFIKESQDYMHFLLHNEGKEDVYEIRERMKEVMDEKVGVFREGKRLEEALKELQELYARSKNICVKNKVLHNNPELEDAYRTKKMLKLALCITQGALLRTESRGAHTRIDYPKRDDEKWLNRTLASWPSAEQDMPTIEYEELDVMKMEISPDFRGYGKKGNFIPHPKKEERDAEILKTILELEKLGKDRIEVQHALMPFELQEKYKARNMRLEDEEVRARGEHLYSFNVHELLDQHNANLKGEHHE
T1 sequence (O06914 1-245 partner): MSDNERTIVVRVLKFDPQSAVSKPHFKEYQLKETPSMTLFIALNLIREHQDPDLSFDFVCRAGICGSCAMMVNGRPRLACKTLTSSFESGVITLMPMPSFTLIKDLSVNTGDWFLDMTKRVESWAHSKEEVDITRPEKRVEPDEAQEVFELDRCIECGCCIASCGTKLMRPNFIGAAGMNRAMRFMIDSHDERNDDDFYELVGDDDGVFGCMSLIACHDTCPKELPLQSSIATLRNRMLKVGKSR
T1 sequence (O06912 1-255 partner): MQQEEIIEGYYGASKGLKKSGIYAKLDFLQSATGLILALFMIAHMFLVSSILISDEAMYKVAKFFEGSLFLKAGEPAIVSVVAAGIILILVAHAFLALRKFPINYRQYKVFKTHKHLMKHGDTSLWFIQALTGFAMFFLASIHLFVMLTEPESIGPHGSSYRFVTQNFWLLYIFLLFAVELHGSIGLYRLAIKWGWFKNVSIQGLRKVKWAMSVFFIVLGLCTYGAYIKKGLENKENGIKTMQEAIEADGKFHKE
Experimental: 1) Extraction of soluble FRD: Bacteria were harvested by centrifugation at 18,000 g for 10 min at 4° C., and were washed 2 times in an isotonic phosphate saline buffer (50 mM sodium phosphate, pH 7.2, 90 mM NaCl, 5 mM Kcl). Bacteria were lysed in 5 mM Tris-HCl, pH 7.4, for 15 minutes, and centrifuged 18,000 g for 10 minutes. Membrane associated proteins were solubilized from the pellet in 150 mM KCl, pH 7.0, in ice bath for 60 min, and then the supernatant was collected after centrifugation (18,000 g for 10 minutes) for the measurement of FRD activity.
2) Extraction of FRD by sonication: Bacteria were harvested by centrifugation at 18,000 g for 10 min at 4° C., were sonicated, and then the supernatant was collected after centrifugation (18,000 g for 10 minutes) for the measurement of FRD activity.
NADH-FRD activity was determined as the rate of NADH-oxidation upon addition of 1 mM fumarate in the KCl-solubilized fraction or sonicated fraction. The reaction was monitored spectrophotometrically at 340 nm (∈=6.2 mM^−1 cm^−1) using 100 μM NADH and usually 3 mg protein in both reference and sample cuvettes. The measurement was carried out in a Shimadzu UV-190 double-beam spectrophotometer. Protein concentrations were determined using a Bio-Rad protein assay (Bio-Rad Laboratories, 200 Alfred Nobel Dr. Hercules, Calif. 94547, USA).
KCl solubilised fraction of bacteria was incubated with different concentrations of various oxygenated chalcones at 28° C. and the remaining FRD activity was measured. The IC50 values were determined as the concentration at which 50% of the activity was inhibited.

NDH (L. major) = assay: Effect on L. major NADH dehydrogenase; type: biochemical, Leishmania major; settings: incubation at 28° C.
Excerpt: FIG. 11. Effect of licochalcone A on Leishmania major NADH dehhydrogenase. […] Data are mean ±SEM from 6 different experiments.

NDH (human MNC) = assay: Effect on human MNC NADH dehydrogenase; type: biochemical; settings: incubation at 28° C. for 5 min
Experimental: FIG. 15. Effect of licochalcone A on human MNC NADH dehydrogenase. Membrane rich fraction of parasite was incubated with licochalcone A at 28° C. for 5 min, the remaining enzyme activity was measured. Data are mean ±SEM from 4 different experiments.

NCC (L. major) = assay: Effect on L. major NADH-cytochrome c reductase; type: biochemical, Leishmania major; settings: incubation at 28° C. for 5 min
Experimental: FIG. 13. Effect of licochalcone A on Leishmania major NADH-cycochrome c reductase. Membrane rich fraction of parasite was incubated with licochalcone A at 28° C. for 5 min, the remaining enzyme activity was measured. Data are mean ±SEM from 4 different experiments.

[2] = Single dose toxicity in mice; type: in vivo
Experimental: Also in rats, LDlow po>1000 mg/kg was found. Studies carried out later in the project using the dosing schedule, also used to measure effects against the malaria parasites, confirmed the very good oral tolerance to all compounds tested.

[3] = tested on: human embryonic lung (HEL) cells; assay: Cytotoxicity in human embryonic lung (HEL) cells; type: cell-based; settings: HEL cell growth reduced by 50%; values given as fractions
[4] = tested on: parasite mitochondrial dehydrogenase; assay: Parasite mitochondrial dehydrogenase activity; type: biochemical, Leishmania major
CHO cells = assay: Chromosomal aberration assay with CHO cells; type: cell-based; settings: both with and without metabolic activation (S9 mix)
[5] = compound 50 (unit not given), mean±SD, three experiments

| melting point | Structure (SMILES) | growth of Peptostreptococcus (Peptostreptococcus) | FRD activity ([1]; compound 1 (unit not given)) | FRD activity ([1]; compound 5 (unit not given)) | FRD activity ([1]; compound 10 (unit not given)) | FRD activity ([1]; compound 25 (unit not given)) | FRD activity [1, 5] | IC50 (NDH (L. major)) | IC50 (NDH (human MNC)) | IC50 (NCC (L. major)) | LDlow po [2] | Cytotoxicity CC50 [3] | activity of the parasite mitochondrial dehydrogenase [4] | chromosomal aberration assay with CHO cells (CHO cells) |
| --- | --- | --- | --- | --- | --- | --- | --- | --- | --- | --- | --- | --- | --- | --- |
|  | C=CC(C)(C)c1cc(/C=C/C(=O)c2ccc(O)cc2)c(OC)cc1O [Licochalcone A] | completely inhibted | 14.5 ± 2.9 mu/mg of protein | 6.8 ± 1.7 mu/mg of protein | 2.5 ± 1.1 mu/mg of protein | 0.9 ± 0.6 mu/mg of protein | 0.0 mu/mg of protein | 415.1 μg/mg protein | 454.2 μg/mg protein | 387.5 μg/mg protein | > 1000 mg/kg | 1/600 | inhibited the activity of the parasite mitochondrial dehydrogenase |  |
| 75.5 to 76.2 °C | COc1cc(/C=C/C(=O)c2ccc(C3CCCCC3)cc2)cc(OC)c1 [PH104, 3,5-dimethoxy-4′-cyclohexylchalcone] |  |  |  |  |  |  |  |  |  |  |  |  |  |
|  | COc1cc(/C=C/C(=O)c2ccc([N+](=O)[O-])cc2)cc(OC)c1 [PH105, 4′-nitro-3,5-dimethoxychalcone] |  | 15.8 ± 2.0 mu/mg of protein | 8.5 ± 1.8 mu/mg of protein | 4.1 ± 1.5 mu/mg of protein | 1.7 ± 0.7 mu/mg of protein | 0.0 mu/mg of protein |  |  |  |  |  |  |  |
|  | C=CCOc1ccc(C(=O)/C=C/c2cc(OC)cc(OC)c2)cc1 [SBC-35ma, 3,5-dimethoxy-4′-allyloxychalcone] |  |  |  |  |  |  |  |  |  |  | <1/60 |  | clear clastogenic response |
